According to PMC5811606, “Characterization of ^111In-labeled Glucose-Dependent Insulinotropic Polypeptide as a Radiotracer for Neuroendocrine Tumors” (Scientific Reports, 2018):
“Also recorded” adds a separate entry of the source.

Assay: Serum stability analysis in human serum
Assay type: in vitro ADME
Settings: human serum (1:10), 37 °C
Description: [Lys^37(DTPA)]N-acetyl-GIP1-42 (MW = 5422 g/mol) and GIP1-42 (MW = 5046.7 g/mol) were purchased from Peptide Specialty Laboratories (PSL GmbH, Heidelberg, Germany). DTPA was conjugated to the ε-amino group of the Lysine (K37) and the N-terminal tyrosine was acetylated to reduce its susceptibility to […] (Fig. 1). [Lys^37(DTPA)]GIP1-42 was dissolved in 0.5 M MES (2-(N-morpholino)ethanesulfonic acid) buffer, pH 5.5 and stored at 4 °C until use. […] Radiochemical purity of [Lys^37(^111In-DTPA)]N-acetyl-GIP1-42 was determined by instant thin-layer chromatography (ITLC) (ITLC-SG, Agilent Technologies, Lake Forest, CA, USA), using 0.1 M EDTA in 0.1 M NH4Ac (Sigma Aldrich), pH 5.5 as a mobile agent and by reversed-phase high performance liquid chromatography (RP-HPLC) using an Eclipse XDB C18 column (Agilent Technologies). […]
For the serum stability analysis, [Lys^37(DTPA)]N-acetyl-GIP1-42 was labeled with [^111In]Cl3 at a specific activity of 27 GBq/µmol. Radiochemical purity of [Lys^37(^111In-DTPA)]N-acetyl-GIP1-42 directly after labeling was determined by ITLC-SG (Agilent Technologies) and RP-HPLC as described above. […] This mixture was centrifuged and after dilution, the radiochemical purity of the compound in the supernatant was analyzed using ITLC and RP-HPLC as described above.

Which results are given for `CC[C@H](C)[C@H](NC(=O)[C@H](CO)NC(=O)[C@H](Cc1ccc(O)cc1)NC(=O)[C@H](CC(=O)O)NC(=O)[C@H](CO)NC(=O)[C@@H](NC(=O)[C@H](Cc1ccccc1)NC(=O)[C@@H](NC(=O)CNC(=O)[C@H](CCC(=O)O)NC(=O)[C@H](C)NC(=O)[C@H](Cc1ccc(O)cc1)NC(C)=O)[C@@H](C)O)[C@@H](C)CC)C(=O)N[C@@H](C)C(=O)N[C@@H](CCSC)C(=O)N[C@@H](CC(=O)O)C(=O)N[C@@H](CCCCN)C(=O)N[C@H](C(=O)N[C@@H](Cc1c[nH]cn1)C(=O)N[C@@H](CCC(N)=O)C(=O)N[C@@H](CCC(N)=O)C(=O)N[C@@H](CC(=O)O)C(=O)N[C@@H](Cc1ccccc1)C(=O)N[C@H](C(=O)N[C@@H](CC(N)=O)C(=O)N[C@@H](Cc1c[nH]c2ccccc12)C(=O)N[C@@H](CC(C)C)C(=O)N[C@@H](CC(C)C)C(=O)N[C@@H](C)C(=O)N[C@@H](CCC(N)=O)C(=O)N[C@@H](CCCCN)C(=O)NCC(=O)N[C@@H](CCCCN)C(=O)N[C@@H](CCCCN)C(=O)N[C@@H](CC(N)=O)C(=O)N[C@@H](CC(=O)O)C(=O)N[C@@H](Cc1c[nH]c2ccccc12)C(=O)N[C@@H](CCCCNC(=O)CN(CCN(CCN(CC(=O)O)CC(=O)O)CC(=O)O)CC(=O)O)C(=O)N[C@@H](Cc1c[nH]cn1)C(=O)N[C@@H](CC(N)=O)C(=O)N[C@H](C(=O)N[C@H](C(=O)N[C@@H](CCC(N)=O)C(=O)O)[C@@H](C)O)[C@@H](C)CC)C(C)C)[C@@H](C)CC` [[Lys^37(^111In-DTPA)]N-acetyl-GIP1-42, metal not drawn]?
remaining at 24 h (24 hours, acetonitrile precipitation, RP-HPLC, read-out: activity found as intact radiolabeled peptide): 73%; stability in human serum (up to 4 hours, ITLC and RP-HPLC): remained intact; also recorded: remained stable
